Experimental data taken from patent US6524625B2, “Physiologically active extract obtained from indigo plant polygonum tinctorium” (Kabushiki Kaisha Hayashibara Seibutsu Kagaku Kenkyuto, priority 1998, dated 2003).
In brackets after ≈: the same amount, converted by molar mass.

What was measured:
[1] = test system: Staphylococcus aureus (ATCC 6538P); experiment: Antiseptic action: MIC, agar plate dilution method; assay type: cell-based; conditions: Staphylococcus aureus, ATCC6538P, read-out: Minimum inhibitory concentration
[2] = test system: Helicobacter pylori (NCTC 11638); experiment: Antiseptic action: MIC, agar plate dilution method; assay type: cell-based
HGC-27 cells [3] = experiment: Apoptosis controlling action, propidium iodide flow cytometry; assay type: cell-based, human; conditions: HGC-27 cells (1 × 10^5 cells/ml)
Description: (§1) The solution was distributed to a microplate in one milliliter per well, and the solution in each well was diluted in series with a fresh preparation of the same medium as used in the above.
(§2) HL-60 cells, ATCC CCL-240, derived from a patient with acute promyelocytic leukemia; U-937 cells, ATCC CRL-1593.2, derived from a patient with human histiocytic lymphoma; HGC-27 cells, RCB0500, derived from a patient with gastric cancer; HLC-1 cells, RCB0083, derived from a patient with lung adenocarcinoma; and C6 cells, ATCC CCL-107, derived from rat glial tumor, were respectively suspended in RPMI1640 medium (pH 7.2) to give a cell density of 1×10^6 cells/ml or 2×10^5 cells/ml. To the microplate, containing a one milliliter dilution of 20, 10 or 5.0 μg/ml of Compound 1, was added one milliliter per well of either of the above cell suspensions and used for test systems. All the test systems were made duplex and respectively subjected to 24- and 48-hour incubations in a 5 v/v % CO2 incubator at 37° C. A system free of Compound 1 was provided and treated similarly as above and used for control.
(§3) According to the method by I. Nicoletti et al. in Journal of Immunological Methods, Vol. 139, pp. 271-279 (1991), the apoptosis-induced cells in the test systems and control were stained by propidium iodide and determined for the percentage of the stained cells to the total cells in such a manner that transferring each of the cultures to polypropylene tubes, centrifuging the tubes, removing the resulting supernatants, washing the cells' sediments with phosphate buffered saline containing 0.3 v/v % calf serum albumin, and further centrifuging the washed cells to remove supernatants. The newly formed sediments were respectively mixed with 50 μg/ml of propidium iodide commercialized by Sigma Chemical Company, St. Louis, Mo., USA, 0.1 w/v % sodium citrate, and0.1 w/v % “TRITON X-100”, a surfactant commercialized by Sigma Chemical Company, St. Louis, Mo., USA, in respective volumes of 1.5 ml to stain the cells by propidium iodide. The stained cells were stored at 4° C. in the dark overnight. The stained cells of each test system were analyzed on “EPICS PROFILE II”, a flow cytometry commercialized by Beckman Coulter, Inc., CA, USA. Based on the data the percentage of the stained cells to the total cells in each test system was measured for apoptosis occurrence.

HLC-1 cells [4] = experiment: as above; assay type: cell-based, human; conditions: HLC-1 cells (1 × 10^5 cells/ml)
Description: as §1, §2, §3

HL-60 cells [5] = experiment: as above; assay type: cell-based, human; conditions: HL-60 cells (5 × 10^5 cells/ml)
Description: as §1, §2, §3

U-937 cells = experiment: as above; assay type: cell-based, human; conditions: U-937 cells (5 × 10^5 cells/ml)
Description: as §1, §2, §3

HGC-27 cells [6] = experiment: Antitumor action: growth inhibition, methylene blue staining; assay type: cell-based; conditions: Homo sapiens, HGC-27, 48 h, read-out: 50% growth inhibitory concentration
Description: (§4) Solutions in each well were serially diluted with a fresh preparation of the same RPMI1640 medium (pH 7.2) as used in the above. […] Each cell suspension was distributed to a microplate in a volume of 50 μl/well and incubated at 37° C. for 48 hours in a 5 v/v % CO2 incubator. To each microplate, a 25 v/v % aqueous glutaraldehyde solution was added in a volume of 20 μl/well, and the microplate was allowed to stand for 15 min to fix the cells. Then, the cells adhered to the wells were washed with water, admixed with a 0.05 w/v % aqueous methylene blue solution in a volume of 100 μl/well, and further allowed to stand for 15 min to stain the cells. Thereafter, an excessive amount of the staining solution was removed from the wells by washing with water, and the cells were dried, admixed with 300 μl/well of 0.33 N hydrochloric acid, stirred sufficiently, and measured for absorption at a wavelength of 620 nm. In parallel, as a control, a system free of a test sample was provided and treated similarly as in the test samples. […]

HLC-1 cells [7] = experiment: as above; assay type: cell-based; conditions: Homo sapiens, 48 h, read-out: 50% growth inhibitory concentration
Description: as §4

HL-60 cells [8] = experiment: as above; assay type: cell-based; conditions: Homo sapiens, HL-60, 48 h, read-out: 50% growth inhibitory concentration
Description: as §4

[9] = Water-solubility (dissolving in refined water for the NBT test); assay type: physicochemical; conditions: NBT evaluation impossible
Description: Then the formed formazan was quantified on spectro-chemical analysis. Either of the present physiologically active extracts was dissolved in a refined water to give an appropriate concentration, and the solutions were used for test samples. As a control it was provided by replacing the test samples with a refined water. The 50% inhibitory activity for the formation of formazan in the control was defined as a one unit activity of radical-entrapping action. Based of the definition, the radical-entrapping activity of one gram of each test sample was determined.
Particularly, the radical-entrapping action of the physiologically active substance of Experiment 1 and Compounds 5 and 6 of Experiment 2 was remarkable.

[10] = 48 hours, 2.5 μg/ml, control 1.5
[11] = 48 hours, 5.0 μg/ml, control 1.5
[12] = 48 hours, 10 μg/ml, control 1.5

O=C1c2ccccc2-n2c1nc1ccccc1c2=O [Compound 1, 6,12-dihydro-6,12-dioxoindolo[2,1-b]quinazoline]
MIC [1]: 39 µg/mL (≈ 157 µM) | MIC ([2]; Helicobacter pylori, NCTC11638, read-out: Minimum inhibitory concentration): 2.5 µg/mL (≈ 10.1 µM) | Inhibition of the growth of Helicobacter pylori (in words) ([2]; comment on Table 8): strongly inhibited the growth | Apoptosis occurrence (HGC-27 cells [3]; 24 hours, 2.5 μg/ml, control 1.5): 1.9% | Apoptosis occurrence (HGC-27 cells [3]; 24 hours, 5.0 μg/ml, control 1.5): 1.7% | Apoptosis occurrence (HGC-27 cells [3]; 24 hours, 10 μg/ml, control 1.5): 3.5% | Apoptosis occurrence (HGC-27 cells [3]; 48 hours, 2.5 μg/ml, control 1.4): 2.2% | Apoptosis occurrence (HGC-27 cells [3]; 48 hours, 5.0 μg/ml, control 1.4): 4.1% | Apoptosis occurrence (HGC-27 cells [3]; 48 hours, 10 μg/ml, control 1.4): 14.1% | Apoptosis occurrence (HLC-1 cells [4]; 24 hours, 2.5 μg/ml, control 2.7): 3.7% | Apoptosis occurrence (HLC-1 cells [4]; 24 hours, 5.0 μg/ml, control 2.7): 4.2% | Apoptosis occurrence (HLC-1 cells [4]; 24 hours, 10 μg/ml, control 2.7): 8.1% | Apoptosis occurrence (HLC-1 cells [4]; [10]): 5.8% | Apoptosis occurrence (HLC-1 cells [4]; [11]): 7.3% | Apoptosis occurrence (HLC-1 cells [4]; [12]): 21.8% | Apoptosis occurrence (HL-60 cells [5]; 24 hours, 2.5 μg/ml, control 0.7): 0.7% | Apoptosis occurrence (HL-60 cells [5]; 24 hours, 5.0 μg/ml, control 0.7): 1.7% | Apoptosis occurrence (HL-60 cells [5]; 24 hours, 10 μg/ml, control 0.7): 11.8% | Apoptosis occurrence (HL-60 cells [5]; [10]): 1.3% | Apoptosis occurrence (HL-60 cells [5]; [11]): 4.2% | Apoptosis occurrence (HL-60 cells [5]; [12]): 22.6% | Apoptosis occurrence (U-937 cells; 24 hours, 2.5 μg/ml, control 3.2): 3.2% | Apoptosis occurrence (U-937 cells; 24 hours, 5.0 μg/ml, control 3.2): 5.0% | Apoptosis occurrence (U-937 cells; 24 hours, 10 μg/ml, control 3.2): 6.8% | Apoptosis occurrence (U-937 cells; 48 hours, 2.5 μg/ml, control 4.5): 5.2% | Apoptosis occurrence (U-937 cells; 48 hours, 5.0 μg/ml, control 4.5): 11.7% | Apoptosis occurrence (U-937 cells; 48 hours, 10 μg/ml, control 4.5): 66.9% | IC50 (HGC-27 cells [6]): 1.5 µg/mL (≈ 6.04 µM) | IC50 (HLC-1 cells [7]): 2.2 µg/mL (≈ 8.86 µM) | IC50 (HL-60 cells [8]): 4.2 µg/mL (≈ 16.9 µM) | Water-solubility [9]: insufficient water-solubility
